Experimental data reported in patent US20190090458A1, “DEVICE FOR OBTAINING AGE/SIZE-MATCHED NEMATODES AND METHODS OF USE” (University of Alaska, Fairbanks, priority 2017, published 2019).

Assays:
sod-3::gfp = sod-3::gfp fluorescent reporter stress response assay; type: in vivo, C. elegans; settings: 100 μM paraquat, positive control; strain CF1553; p<0.05
Protocol: Three commonly used fluorescent reporter assays were performed to detect potential markers of stress: a DAF-16::GFP translocation into the nuclei of cells in a strain [TJ356-zIs356 (pDAF-16::DAF-16-GFP;rol-6)]; an hsp-16.2 expression [TJ375-gpls 1 (hsp-16.2p::GFP)]; and a sod-3 expression [CF1553-muIs84([pAD76]sod-3p::GFP+rol-6[su1006])]. Henderson, S. T., Johnson, T. E. daf-16 integrates developmental and environmental inputs to mediate aging in the nematode Caenorhabditis elegans. Current Biology. 11 (24), 1975-1980 (2001); Rea, S. L., Wu, D., Cypser, J. R., Vaupel, J. W., Johnson, T. E. A stress-sensitive reporter predicts longevity in isogenic populations of Caenorhabditis elegans. Nature Genetics. 37 (8), 894-898 (2005); and, Libina, N., Berman, J. R., Kenyon, C. […]
At day 3 of adulthood, the nematodes were harvested with an eyelash pick and mounted to a coverslip with 1 μL of a 36% poloxamer 407 surfactant solution to immobilize the nematodes. […] Differences in the fluorescent localization between the three groups was recorded and results compared using an ordinal logistics statistical model in statistical analysis software (DAF-16::GFP assay) and for the hsp-16.2 and the sod-3 expression assays, a one-way ANOVA with α=0.05 and Tukey's post hoc tests with α=0.05 was used to compare the total fluorescence of the head region. […]

C. elegans [1] = assay: Motility assay (motility class scoring); type: in vivo; settings: 100 μM FUDR in NGM; days 2, 4, 6 and 8 of adulthood; p>0.05
Protocol: (§1) The three groups tested were separated by: 1) individual picking, wherein nematodes were selected and transferred manually using a platinum loop; 2) the chemical treatment fluorodeoxyuridine (FUDR), wherein 100 mg/mL FUDR was added to the NGM media to a final concentration of 100 μM to prevent any progeny production, and then the nematodes were transferred every other day to a fresh NGM plate to avoid food depletion; and, 3) the device of Example 1.
In C. elegans the normal sinusoidal movement (i.e., motility) declines with age and is a marker of overall health. To determine if the present device influenced motility, motility scores were compared for pick, FUDR, and present filter membrane device treatment groups on days 2, 4, 6, and 8 of adulthood. The mobility assay was performed as disclosed by Hendon et al. Stochastic and genetic factors influence tissue-specific decline in ageing C. elegans. Nature. 419 (6909), 808-814 (2002). The nematodes were assigned a motility score and assigned to a class (A, B, or C). Class A individuals move spontaneously in a normal, sinusoidal pattern. Class B individuals move in markedly non-sinusoidal movements and may require prodding to encourage movement. Class C individuals move their head and/or tail in response to prodding but are unable to move across the agar.

C. elegans [2] = assay: Pharyngeal pump rate; type: in vivo; settings: 100 μM FUDR in NGM; days 6 and 8 of adulthood; p<0.001
Protocol: as §1
The ability of C. elegans' pharyngeal muscles to pump declines with age and is another biomarker of healthspan. To determine if the present filter membrane device influenced the nematodes' pharyngeal pump rate, the three treatment groups were compared on days 2, 4, 6, and 8 of adulthood (n=8 to 10 per group). The grinder movement of the nematode's terminal pharyngeal bulb was visually counted under a stereomicroscope at a 600× final magnification for 1 minute, wherein a statistical analysis with a one-way ANOVA with α=0.05 and Bonferroni post-tests with α=0.05 was performed.

C. elegans [3] = assay: Gentle touch response (anterior and posterior); type: in vivo; settings: 100 μM FUDR in NGM; any day of testing (days 2, 4, 6, 8); p>0.4
Protocol: as §1
Response to mechanical stimulus is a physiological marker to assess aging or general health; thus, the impact of different transfer methods on both the anterior and the posterior gentle touch responses were tested. Responses to a gentle touch were compared between the three treatment groups, wherein the assay was performed based on the methods described by Calixto et al. Enhanced neuronal RNAi in C. elegans using SID-1. Nature Methods. 7 (7), 554-559 (2010). The anterior and posterior touch response was recorded by gently stroking an eyelash pick perpendicularly across the tail or the head (5× each, alternating head and tail) of the animals. Any movement in the opposite direction of the stroke was scored as 1 point on a scale of 0 to 5 for both the anterior and the posterior response. A statistical analysis with a one-way ANOVA with α=0.05 and Bonferroni post-tests with α=0.05 was conducted using the recorded scored.

| SMILES | SOD-3 expression (sod-3::gfp fluorescence of head region) versus pick and device groups (sod-3::gfp) | motility class distribution compared with pick and device groups (C. elegans [1]) | pharyngeal pump rate, FUDR versus picking group (C. elegans [2]) | anterior and posterior gentle touch response compared with pick and device groups (C. elegans [3]) |
| --- | --- | --- | --- | --- |
| C[n+]1ccc(-c2cc[n+](C)cc2)cc1 [paraquat] | high expression of sod-3::gfp |  |  |  |
| O=c1[nH]c(=O)n([C@H]2C[C@H](O)[C@@H](CO)O2)cc1F [FUDR, 5-fluorodeoxyuridine] |  | no difference | significant difference | no statistically significant difference |
